From PubChem BioAssay (NCI)
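Where inhibition never reached the appropriate level, the endpoint shown equals the highest concentration tested. Otherwise, values were interpolated linearly from a five-concentration, 48-hour dose response in 96-well plates. Here, GI50 denotes the concentration required for 50% inhibition of growth. TGI: concentration producing complete growth inhibition.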

Columns and labels:
Assay in all cases: NCI anticancer screen, dose series, 48 h
K-562 leukemia = system: K-562 leukemia
MDA-N = system: MDA-N
NCI-H460 lung = system: NCI-H460 lung
HOP-92 NSCLC = system: HOP-92 NSCLC
HCT-15 colon = system: HCT-15 colon
MDA-MB-435 = system: MDA-MB-435
MOLT-4 leukemia = system: MOLT-4 leukemia
CCRF-CEM leukemia = system: CCRF-CEM leukemia
HOP-62 NSCLC = system: HOP-62 NSCLC
T-47D breast = system: T-47D breast
SF-539 CNS = system: SF-539 CNS

Structure (SMILES)	TGI (K-562 leukemia) [µM]	TGI (MDA-N) [µM]	TGI (NCI-H460 lung) [µM]	TGI (HOP-92 NSCLC) [µM]	TGI (HCT-15 colon) [µM]	TGI (MDA-MB-435) [µM]	TGI (MOLT-4 leukemia) [µM]	TGI (CCRF-CEM leukemia) [µM]	TGI (HOP-62 NSCLC) [µM]	TGI (T-47D breast) [µM]	TGI (SF-539 CNS) [µM]	GI50 (NCI-H460 lung) [µM]
COc1ccc([C@]23CCC4(OCC(C)(C)CO4)[C@H]4CON(O[C@H](O[C@@H]5CCCCC5C(C)(C)c5ccccc5)C2)[C@@H]43)cc1OC (stereo partly specified)	> 100	> 100	> 100	> 100	> 100	> 100	53.1	> 100	> 100	> 100	76.5	–
C[C@H]1[C@H](C)CC[C@]2(C(=O)OC3OC(CO)C(O)C(O)C3O)CC[C@]3(C)C(=CC[C@@H]4[C@@]5(C)C[C@@H](O)[C@@H]6OC(=O)c7cc(O)c(O)c(O)c7-c7c(cc(O)c(O)c7O)C(=O)OC[C@@]6(CO)[C@@H]5CC[C@]43C)[C@H]12 (stereo partly specified)	78.5	51.4	> 100	> 100	> 100	37.2	> 100	98.7	> 100	> 100	> 100	–
CC1=C(C)SC(=C2Sc3c(n(C)c(=O)n(C)c3=O)S2)S1	> 100	> 100	> 100	> 100	> 100	> 100	> 100	> 100	41.3	> 100	26.8	–
CSc1nc(Cl)c2c(n1)Sc1nc3ccccc3n1C2O (stereo unspecified)	> 100	> 100	> 74.6	26.6	> 40.2	> 44.2	> 100	24.6	> 79	> 100	3.8	–
O=c1c2c3c(sc2nc2n1N=C(c1ccc(Br)cc1)CS2)CCCC3	> 100	> 100	> 100	> 100	> 100	> 100	> 100	> 100	> 100	> 100	> 100	–
NC(=O)NN=C1Cc2ccccc2C1	> 100	> 100	> 100	> 100	> 100	> 100	> 100	> 100	> 100	> 100	> 100	–
CSc1ccc(/C=C2\N=C(c3ccccc3)N(c3nc4cc(Cl)c(F)cc4s3)C2=O)cc1	> 100	> 100	> 100	> 100	> 100	> 100	> 100	55.6	98.7	> 100	82.6	–
CN1c2ccccc2C2=C(c3ccccc3)CC[C@@H](C(=O)N3C4CC5CC[C@@]4(CS3(=O)=O)C5(C)C)[C@@H]21 (stereo partly specified)	> 100	> 100	> 100	> 100	> 100	> 100	> 100	> 100	> 100	> 100	> 100	–
CC1(C)C=C(/C=C2/N(S(=O)(=O)C(F)(F)F)C(/C=C3/N(S(=O)(=O)C(F)(F)F)C(C)(C#N)CC3(C)C)=CC2(C)C)N=C1/C=C1/CC(C)(C)C(=O)N1 (stereo unspecified)	> 100	> 100	> 100	95.3	73.6	> 100	> 100	52.8	> 100	> 100	84.5	–
COC1(CC[C@H](C)COC2OC(CO)C(O)C(O)C2O)O[C@H]2C[C@H]3[C@@H]4CC=C5C[C@@H](OC6OC(CO)C(OC7OC(C)C(O)C(O)C7O)C(O)C6OC6OC(C)C(O)C(O)C6O)CC[C@]5(C)[C@H]4CC[C@]3(C)[C@H]2[C@@H]1C (stereo partly specified)	> 100	9.57	15.1	6.2	7.47	5.3	> 100	> 37.1	4.09	9.83	4.05	4.39
